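Results reflect a 48-hour exposure of cells in 96-well plates to compound at five concentrations. At the GI50, growth is halved.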 Active and inactive are the calls of the source. Cut-off read from the data, not from the text of the source: active = GI50 up to about 1.1 µM and inactive = higher.
Tests used:
Assay in all cases: inhibition of tumour cell growth, NCI panel, 48 h
SF-539 = test system: SF-539
NCI/ADR-RES = test system: NCI/ADR-RES
COLO 205 = test system: COLO 205
HCC 2998 = test system: HCC 2998
SNB-75 = test system: SNB-75
SF-268 = test system: SF-268
ACHN = test system: ACHN
HOP-62 = test system: HOP-62
SR = test system: SR
SNB-19 = test system: SNB-19
OVCAR-4 = test system: OVCAR-4
TK-10 = test system: TK-10
UACC-257 = test system: UACC-257
Hs-578T = test system: Hs-578T
T47D = test system: T47D
UO-31 = test system: UO-31
SF-295 = test system: SF-295
HL-60 = test system: HL-60
SK-OV-3 = test system: SK-OV-3
SN12C = test system: SN12C

Row | SMILES | GI50 (SF-539) | GI50 (NCI/ADR-RES) | GI50 (COLO 205) | GI50 (HCC 2998) | GI50 (SNB-75) | GI50 (SF-268) | GI50 (ACHN) | GI50 (HOP-62) | GI50 (SR) | GI50 (SNB-19) | GI50 (OVCAR-4) | GI50 (TK-10) | GI50 (UACC-257) | GI50 (Hs-578T) | GI50 (T47D) | GI50 (UO-31) | GI50 (SF-295) | GI50 (HL-60) | GI50 (SK-OV-3) | GI50 (SN12C)
1 | Brc1ccc2c(-c3nc(-c4c[nH]c5ccccc45)cs3)c[nH]c2c1 | 15.6 µM (inactive) | 27 µM (inactive) | 19.4 µM (inactive) | 24 µM (inactive) | 37.4 µM (inactive) | > 56.8 µM (inactive) | 43.1 µM (inactive) | > 45.8 µM (inactive) | 13.2 µM (inactive) | 41.9 µM (inactive) | > 53.5 µM (inactive) | 12.7 µM (inactive) | 69.2 µM (inactive) | > 100 µM (inactive) | 30.9 µM (inactive) | 19.5 µM (inactive) | 20.3 µM (inactive) | 63 µM (inactive) | > 100 µM (inactive) | 42.9 µM (inactive)
2 | Cc1nnc(Sc2nc(C#N)c(C#N)nc2Sc2nnc(C)s2)s1 | 12 µM (inactive) | 17.7 µM (inactive) | 4.84 µM (inactive) | 20 µM (inactive) | 28.6 µM (inactive) | 23.6 µM (inactive) | 2.93 µM (inactive) | 23.3 µM (inactive) | 9.79 µM (inactive) | 22 µM (inactive) | 13.4 µM (inactive) | 11.1 µM (inactive) | 10.4 µM (inactive) | 14.6 µM (inactive) | 2.54 µM (inactive) | 3.35 µM (inactive) | 22.8 µM (inactive) | 2.72 µM (inactive) | 17.2 µM (inactive) | 9.33 µM (inactive)
3 | C/C(=N\NC(=S)N1CCN(c2ccccn2)CC1)c1cccc2cccnc12 | 4.11 µM (inactive) | 3.35 µM (inactive) | 3.02 µM (inactive) | 5.47 µM (inactive) | 13.1 µM (inactive) | 5.08 µM (inactive) | 4.01 µM (inactive) | 6.05 µM (inactive) | 0.859 µM (active) | 5.78 µM (inactive) | 4.03 µM (inactive) | 6.31 µM (inactive) | 2.84 µM (inactive) | 9.08 µM (inactive) | 3.68 µM (inactive) | 4.36 µM (inactive) | 3.37 µM (inactive) | 0.828 µM (active) | 11.4 µM (inactive) | 4.07 µM (inactive)
4 | [N-]=[N+]=NCC1OC(n2cnc3c(N)ncnc32)C2OC12 (stereo not given) | > 100 µM (inactive) | > 100 µM (inactive) | > 100 µM (inactive) | > 100 µM (inactive) | > 100 µM (inactive) | > 100 µM (inactive) | > 100 µM (inactive) | > 100 µM (inactive) | > 100 µM (inactive) | > 100 µM (inactive) | > 100 µM (inactive) | > 100 µM (inactive) | > 100 µM (inactive) | > 100 µM (inactive) | > 100 µM (inactive) | > 100 µM (inactive) | > 100 µM (inactive) | > 100 µM (inactive) | > 100 µM (inactive) | > 100 µM (inactive)
5 | Cc1ccc([N+](=O)[O-])c2c(NCCNC(=O)c3cc(C(=O)NCCNc4ccnc5c(C)ccc([N+](=O)[O-])c45)n(C)n3)ccnc12 | > 100 µM (inactive) | > 100 µM (inactive) | > 100 µM (inactive) | > 100 µM (inactive) | 45.2 µM (inactive) | > 100 µM (inactive) | > 100 µM (inactive) | > 60 µM (inactive) | 55.1 µM (inactive) | > 100 µM (inactive) | > 49.1 µM (inactive) | > 80.7 µM (inactive) | > 81.1 µM (inactive) | > 87.3 µM (inactive) | > 77.8 µM (inactive) | > 100 µM (inactive) | > 79.6 µM (inactive) | 53.6 µM (inactive) | > 100 µM (inactive) | > 57.7 µM (inactive)
6 | COc1cc(/C=C\c2nnc(/C=C\c3ccc(O)c(OC)c3)s2)ccc1O | 2.44 µM (inactive) | 1.6 µM (inactive) | 13.8 µM (inactive) | 3.48 µM (inactive) | 2.33 µM (inactive) | 4.06 µM (inactive) | 3.61 µM (inactive) | 5.65 µM (inactive) | 1.24 µM (inactive) | 4.58 µM (inactive) | 2.61 µM (inactive) | 4.89 µM (inactive) | 2.16 µM (inactive) | 3.01 µM (inactive) | 2.12 µM (inactive) | 3.47 µM (inactive) | 3.48 µM (inactive) | 1.64 µM (inactive) | 4.41 µM (inactive) | 4.31 µM (inactive)
7 | c1cnc2c(c1)ccc1cccnc12 | 3.72 µM (inactive) | 2.37 µM (inactive) | 4.27 µM (inactive) | 6.7 µM (inactive) | 13.6 µM (inactive) | 4.07 µM (inactive) | 2.86 µM (inactive) | 5.83 µM (inactive) | 1.02 µM (active) | 8.57 µM (inactive) | 4.63 µM (inactive) | 3.88 µM (inactive) | 3.78 µM (inactive) | > 36.3 µM (inactive) | 4.92 µM (inactive) | 2.3 µM (inactive) | 3.52 µM (inactive) | 0.354 µM (active) | 11.7 µM (inactive) | 3.27 µM (inactive)
